Data: US12552757B2, “NRF2-activating compound” (SENJU PHARMACEUTICAL CO., LTD., priority 2019, dated 2026)

Experiments:
NRF2 = assay: Measurement 2 of Nrf2 activating action (reporter assay) in HCE-T/ARE-Luc cells; type: cell-based; conditions: 50% activation concentration, culture for 24 hours
Description: The NRF2 activating action of the compounds on cells was measured by a reporter gene assay. pGL4.37[luc2P/ARE/Hygro](Promega) was introduced into HCE-T cells using FuGENE HD. Cells that acquired drug resistance as a result of transduction were screened by culture in the presence of 50 μg/mL hygromycin, and a clone strain, HCE-T/ARE-Luc, was established.
HCE-T/ARE-Luc was cultured using DMEM/F12, 10 ng/mL hEGF, 5 μg/mL insulin, and 5% FBS. Phenol red-free DMEM/F12 was used as the assay medium.
HCE-T/ARE-Luc was seeded in a 96-well polystyrene microplate (FALCON) with 10000 cells per well. The cells were incubated in a CO: incubator at 37° C. for 16 hours to allow for cell adhesion. The test substance was dissolved in dimethylsulfoxide to prepare a solution at a concentration 1000 times higher than the test concentration. The test substance diluted 1000-fold in the assay medium was added, followed by culture for 24 hours. When measuring the activity of the reporter, the medium containing the test substance was removed, and then a new medium and a substrate of ONE-GloEX Luciferase Assay System (Promega) were added. The plate was shaken for 1 minute and then allowed to stand at ordinary temperature for 10 minutes, and luminescence was detected using the GloMax Discover System.
The 50% activation concentration of each test substance was calculated by creating a calibration curve between two concentrations across the luminescence intensity of 50%.

[1] = Measurement of metabolic stability in human liver microsomes; type: in vitro ADME; conditions: residual ratio of test compound after 30 minutes at 37° C. with human liver microsome, LC/MS/MS
Description: 1 mmol/L DMSO solutions of the compounds produced in the Examples were prepared. Each of the 1 mmol/L DMSO solutions was diluted with acetonitrile to 10 μmol/L, and then diluted with a 6.5 mmol/L Q-NADPH solution to 200 nmol/L. 50 μL of each solution was added to the reaction group and the non-reaction group. 50 μL of a 0.2 mg protein/mL human liver microsome (Mixed Gender, Pool of 50 livers; XenoTech, LLC) solution was added to the reaction group, followed by incubation at 37° C. for 30 minutes with shaking. After 400 μL of methanol was added to the non-reaction group, 50 μL of a 0.2 mg protein/mL human liver microsome solution was added to adjust the formulation. After incubation in the reaction group, 400 μL of methanol was added to stop the reaction. The samples of the reaction group and non-reaction group were allowed to stand at −20° C. for about 30 minutes, followed by centrifugation at 4° C. at 3000 rpm for about 10 minutes. The supernatant was analyzed using LC/MS/MS, and the residual ratio of the test compound was calculated from the peak area value of the test compound using the following formula. The measurement was carried out using the following devices: HPLC system: LC-20A-Series High Performance Liquid Chromatograph (Shimadzu Corporation) and mass spectrometer: API 4000 (AB Sciex Pte. Ltd.), or using equivalent devices. Residual ratio (%)=(peak area value of test compound in reaction group/peak area value of test compound in non-reaction group)×100 Results

[2] = molecular target: T1, binding between NRF2 and KEAP1 (Homo sapiens, UniProt Q14145); assay: Measurement 1 of Nrf2 activating action (binding assay): BRET assay of inhibition of the binding between NRF2 and KEAP1; conditions: 50% binding inhibitory concentration, NanoLuc-NRF2 / KEAP1-HaloTag cell lysates
T1 construct: expressed in transfected cells; host or cells: HCE-T cells; each protein was expressed separately, and the two cell lysates were mixed in the well
Description: Compounds 1 to 53 produced in the Examples were used as test substances.
The inhibitory activity of each compound on the binding between NRF2 and KEAP1 was measured by bioluminescence resonance energy transfer (BRET) assay. A plasmid having human NRF2 (Original Clone ID: ha01449s1) sequence fused with NanoLuc (19 kDa, Promega) at the N-terminal was transduced into HCE-T cells using FuGENE HD (Promega). 48 hours after transduction, the cell lysate was collected and used as an NRF2-expressing cell lysate. A plasmid having human KEAP1 (Original Clone ID: cs00328) sequence fused with HaloTag (33 kDa, Promega) at the C-terminal was transduced into HCE-T cells using FuGENE HD (Promega). After 24 hours, HaloTag Nano BRET 618 Ligand (Promega) was added to the medium. The cell lysate cultured for 24 hours after the addition was used as a KEAP1-expressing cell lysate.
The NRF2-expressing cell lysate and the KEAP1-expressing cell lysate were adjusted so that the luminescence and fluorescence intensities per well were constant. Tables 1 and 2 show the formulation of each reaction solution.
Each test substance at a concentration 100 times higher than the test concentration was dissolved in dimethylsulfoxide for adjustment. 49 μL of KEAP1 solution was added to a 96-well polystyrene microplate (FALCON) to which 1 μL of each test substance solution was added, followed by incubation for 15 minutes. Then, 50 μL of NRF2 solution was added to the above solution, followed by incubation for 1 hour. To measure the binding between NRF2 and KEAP1, NanoBRET Nano-Glo Substrate (Promega) diluted with Opti-Mem (Thermo Fisher Scientific) was added, followed by shaking for 30 seconds. Then, luminescence and fluorescence were measured using the GloMax Discover System (Promega). A 495-nm short pass filter and a 600-nm long pass filter were respectively used to measure donor and acceptor emission values. A value obtained by dividing the acceptor emission value by the donor emission value was regarded as BRET value. A BRET value when the compound was not added, and a BRET value when the KEAP1 solution was not added were respectively used as binding rates of 100% and 0%, and the binding rate when the compound was added was calculated. Further, using this binding rate, the 50% binding inhibitory activity concentration (IC50) was calculated from the following formula: IC50(M)=10^(LOG(A/B)×(50−C)/(D−C)+LOG(B)) • A: higher concentration out of 2 close concentrations across the inhibition rate of 50% • B: lower concentration out of 2 close concentrations across the inhibition rate of 50% • C: inhibition rate at B • D: inhibition rate at A

T1 sequence (Q14145 whole entry): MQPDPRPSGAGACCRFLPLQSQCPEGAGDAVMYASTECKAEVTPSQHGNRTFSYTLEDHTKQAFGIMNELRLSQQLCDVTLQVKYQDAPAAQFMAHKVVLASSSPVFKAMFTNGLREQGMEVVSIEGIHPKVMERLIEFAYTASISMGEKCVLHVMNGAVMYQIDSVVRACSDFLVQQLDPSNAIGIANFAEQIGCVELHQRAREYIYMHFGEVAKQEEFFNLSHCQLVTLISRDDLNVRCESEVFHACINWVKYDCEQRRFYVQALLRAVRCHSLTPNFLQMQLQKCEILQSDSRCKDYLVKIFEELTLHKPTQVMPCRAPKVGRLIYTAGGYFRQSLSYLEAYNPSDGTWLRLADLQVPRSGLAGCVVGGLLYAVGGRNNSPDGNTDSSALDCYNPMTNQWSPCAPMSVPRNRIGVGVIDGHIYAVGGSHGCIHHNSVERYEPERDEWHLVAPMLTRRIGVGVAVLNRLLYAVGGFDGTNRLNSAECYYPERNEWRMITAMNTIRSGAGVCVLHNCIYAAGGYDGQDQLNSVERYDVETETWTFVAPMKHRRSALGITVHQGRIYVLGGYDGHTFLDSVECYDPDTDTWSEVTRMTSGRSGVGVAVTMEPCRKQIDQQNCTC

| SMILES | EC50 (NRF2) | Metabolic stability* [1] | IC50 [2] |
| --- | --- | --- | --- |
| CC[C@@H]1CN(Cc2cc(C(c3ccc(C(C)=O)s3)C(C)C(=O)O)ccc2C)S(=O)(=O)c2ccccc2O1 (stereo partly drawn) [Compound 1, 3-(5-acetylthiophen-2-yl)-3-(3-{[(R)-4-ethyl-1,1-dioxide-3,4-dihydro-2H-benzo[b][1,4,5]oxathiazepin-2-yl]methyl}-4-methylphenyl)-2-methylpropanoic acid] | 9.19 nM | 37% |  |
| CC[C@@H]1CN(Cc2cc(C(c3cc(F)c(C(C)=O)s3)C(C)(C)C(=O)O)ccc2C)S(=O)(=O)c2cnccc2O1 (stereo partly drawn) [Compound 49, 3-(5-acetyl-4-fluorothiophen-2-yl)-3-(3-{[(R)-4-ethyl-1,1-dioxide-3,4-dihydro-2H-pyrido[4,3-b][1,4,5]oxathiazepin-2-yl]methyl}-4-methylphenyl)-2,2-dimethylpropanoic acid] | 7.76 nM | 44% |  |
| CC[C@@H]1CN(Cc2cc(C(c3cc(OC)c(C(C)=O)s3)C(C)C(=O)O)ccc2C)S(=O)(=O)c2cnccc2O1 (stereo partly drawn) [Compound 51, 3-(5-acetyl-4-methoxythiophen-2-yl)-3-(3-{[(R)-4-ethyl-1,1-dioxide-3,4-dihydro-2H-pyrido[4,3-b][1,4,5]oxathiazepin-2-yl]methyl}-4-methylphenyl)-2-methylpropanoic acid] | 7.47 nM | 50% |  |
| CC[C@@H]1CN(Cc2cc(C(c3cc(C)c(C(C)=O)s3)C(C)C(=O)O)ccc2C)S(=O)(=O)c2ccccc2O1 (stereo partly drawn) [Compound 2, 3-(5-acetyl-4-methylthiophen-2-yl)-3-(3-{[(R)-4-ethyl-1,1-dioxide-3,4-dihydro-2H-benzo[b][1,4,5]oxathiazepin-2-yl]methyl}-4-methylphenyl)-2-methylpropanoic acid] | 9 nM | 21% |  |
| CC[C@@H]1CN(Cc2cc(C(c3cc(OC)c(C(C)=O)s3)C(C)(C)C(=O)O)ccc2C)S(=O)(=O)c2cnccc2O1 (stereo partly drawn) [Compound 50, 3-(5-acetyl-4-methoxythiophen-2-yl)-3-(3-{[(R)-4-ethyl-1,1-dioxide-3,4-dihydro-2H-pyrido[4,3-b][1,4,5]oxathiazepin-2-yl]methyl}-4-methylphenyl)-2,2-dimethylpropanoic acid] | 2.98 nM | 48% |  |
| CC[C@@H]1CN(Cc2cc(C(c3ccc(C(C)=O)s3)C(C)(C)C(=O)O)ccc2C)S(=O)(=O)c2cnccc2O1 (stereo partly drawn) [Compound 48, 3-(5-acetylthiophen-2-yl)-3-(3-{[(R)-4-ethyl-1,1-dioxide-3,4-dihydro-2H-pyrido[4,3-b][1,4,5]oxathiazepin-2-yl]methyl}-4-methylphenyl)-2,2-dimethylpropanoic acid] | 3.67 nM | 56% |  |
| CC[C@@H]1CN(Cc2cc(C(c3cc(OC)c(C(C)=O)s3)C(C)(C)C(=O)O)ccc2C)S(=O)(=O)c2ccccc2O1 (stereo partly drawn) [Compound 4, 3-(5-acetyl-4-methoxythiophen-2-yl)-3-(3-{[(R)-4-ethyl-1,1-dioxide-3,4-dihydro-2H-benzo[b][1,4,5]oxathiazepin-2-yl]methyl}-4-methylphenyl)-2,2-dimethylpropanoic acid] | 7.17 nM | 48% |  |
| CC(=O)c1ccc(C(c2ccc(C)c(CN3CC(CCOCc4ccccc4)Oc4ccccc4S3(=O)=O)c2)C(C)C(=O)O)s1 (stereo not shown) [Compound 13, 3-(5-acetylthiophen-2-yl)-3-[3-({4-[2-(benzyloxy)ethyl]-1,1-dioxide-3,4-dihydro-2H-benzo[b][1,4,5]oxathiazepin-2-yl}methyl)-4-methylphenyl]-2-methylpropanoic acid] | 6.71 nM | 2% |  |
| CC[C@@H]1CN(Cc2cc(C(CC(=O)O)c3cc4c(n3C)CCCC4=O)ccc2C)S(=O)(=O)c2ccccc2O1 (stereo partly drawn) [Compound 37, 3-(3-{[(R)-4-ethyl-1,1-dioxide-3,4-dihydro-2H-benzo[b][1,4,5]oxathiazepin-2-yl]methyl}-4-methylphenyl)-3-(1-methyl-4-oxo-4,5,6,7-tetrahydro-1H-indol-2-yl)propanoic acid] |  | 89% | 0.16 nM |
| CC[C@@H]1CN(Cc2cc(C(c3cc(C(C)=O)cs3)C(C)C(=O)O)ccc2C)S(=O)(=O)c2ccccc2O1 (stereo partly drawn) [Compound 3, 3-(4-acetylthiophen-2-yl)-3-(3-{[(R)-4-ethyl-1,1-dioxide-3,4-dihydro-2H-benzo[b][1,4,5]oxathiazepin-2-yl]methyl}-4-methylphenyl)-2-methylpropanoic acid] | 6.81 nM | 51% |  |
| CC[C@@H]1CN(Cc2cc(C(c3ccc(C(C)=O)s3)C(C)C(=O)O)ccc2C)S(=O)(=O)c2cnccc2O1 (stereo partly drawn) [Compound 16, 3-(5-acetylthiophen-2-yl)-3-(3-{[(R)-4-ethyl-1,1-dioxide-3,4-dihydro-2H-pyrido[4,3-b][1,4,5]oxathiazepin-2-yl]methyl}-4-methylphenyl)-2-methylpropanoic acid] | 3.57 nM | 51% |  |
